Results from patent publication US7790400B2, “Delta-9-tetrahydrocannabinol detection method” (Concateno UK Limited, priority 2004, dated 2010).

Key:
[1] = test system: mouse monoclonal anti-THC antibody; test: Interference of free 5-pentylresorcinol with antibody binding to immobilised 5-pentylresorcinol-macromolecule conjugates; conditions: 5-pentylresorcinol in free solution
[2] = test system: gold-labelled mouse monoclonal anti-THC antibody; test: Lateral flow immunochromatography test for cannabis, immobilised BSA-THC conjugate, spiked oral fluid, Cozart Rapiscan reader; conditions: lowest concentration in spiked drug-free oral fluid giving a positive signal on the reader
[3] = test system: gold-labelled mouse monoclonal anti-THC antibody; test: Lateral flow immunochromatography test for cannabis, immobilised BSA-CAN (5-pentylresorcinol/BSA) conjugate, spiked oral fluid, Cozart Rapiscan reader; conditions: for Detectable level by competitive immunoassay: 5-pentylresorcinol conjugate with commercial anti-THC antibody; for Concentration giving positive Cozart Rapiscan Response: immobilised conjugate BSA-CAN, lowest concentration in spiked drug-free oral fluid giving a positive signal on the reader
[4] = test system: antibodies raised to THC-COOH coupled to a carrier protein via the phenolic group at C1; conditions: relative to THC-COOH; commercially available assay; cited from earlier work

Compound | Interference with binding of anti-THC antibody to immobilised conjugate [1] | Concentration giving positive Cozart Rapiscan Response [2] | Detectable level by competitive immunoassay [3] | Concentration giving positive Cozart Rapiscan Response [3] | Cross-reactivity [4] | Increase of sensitivity of detection with BSA-CAN versus BSA-THC ([3]; lateral flow strips, BSA-CAN compared with BSA-THC) | Sensitivity of detection compared with the parent drug THC ([3]; 5-pentylresorcinol conjugate and anti-THC antibody combination)
CCCCCc1cc(O)cc(O)c1 [5-pentylresorcinol] | does not interfere |  |  |  |  |  | 
CCCCCc1cc(O)c2c(c1)OC(C)(C)[C@@H]1CCC(C(=O)O)=C[C@@H]21 [THC—COOH, 11-nor-9-carboxy-delta-9-THC] |  | 10 ng/mL | about 1.0 ng/ml | 1.0 ng/mL |  |  | 
CCCCCc1cc(O)c2c(c1)OC(C)(C)[C@@H]1CCC(C)=C[C@@H]21 [THC, Delta-9-tetrahydrocannabinol] |  | 200 ng/mL | ≤ 20 ng/mL | 20 ng/mL | 5% | about 10 fold | 
CCCCCc1cc(O)c2c(c1)OC(C)(C)[C@@H]1CCC(CO)=C[C@@H]21 [THC—OH, 11-hydroxy-delta-9-THC] |  | 200 ng/mL |  | 20 ng/mL |  |  | comparable sensitivity to the parent drug
